Key:
U373 cells = experiment: Oncolysis of U373 cells by dl520 with Irinotecan and Trichostatin A, crystal violet; assay type: cell-based; conditions: U373, 2 μM Irinotecan
Description: 200,000 U373 cells were plated in a 6 well plate. After 24 hours either 2 μM Irinotecan or only 1 μM Trichostatin A or 1 μM Irinotecan+0.5 μM Trichostatin were added to the medium. After 24 hours of incubation the cells were infected with 10, 20 and 30 pfu/cell dl520. After 3-5 days the analysis was performed using crystal violet staining. The assays were performed in duplicate.
The further 6 well plates 2, 3 and 4 depicted in FIG. 22, herein also referred to as panels 2, 3 and 4, were basically treated in accordance with this scheme. The individual wells were inoculated with U373 cells as previously described and the cells cultivated therein. The wells were inoculated with 10, 20 or 30 pfu/cell dl520 in duplicate, whereby the difference between the three 6 well plates resided in the kind of cytostatics used. In panel 2 2 μM Irinotecan, in panel 3 […] and in panel 4 1 μM Irinotecan and 0.5 μM Trichostatin A was added to the individual plates.

U373 tumour cells [1] = experiment: Southern blot of dl520 replication after Irinotecan; assay type: cell-based; conditions: U373, 5 μM Irinotecan 24 h before 10 pfu/cell dl520
Description: In order to determine the effect of Irinotecan on adenoviral replication 10^6 U373 tumour cells were plated in 10 cm^2 Petri dishes. In a first reaction 5 μM Irinotecan was added after 24 hours. After another 24 hours the cells were infected with 10 pfu/cell dl520. After incubation of 3 days without Irinotecan DNA was isolated in accordance with the procedure described in example 10.
In a parallel reaction the thus prepared U373-cells were not pre-incubated with Irinotecan. After 48 hours of cultivating the cells without Irinotecan, they were infected with 10 pfu/cell dl520 and subsequently incubated without Irinotecan for another 3 days. DNA was isolated as described above.
Subsequently […] were digested with restriction enzyme Kpn I and a Southern Blot analysis performed. A part of the adenoviral genome (position: 22734-24235) generated by means of PCR was used as a probe.

U373 tumour cells [2] = experiment: Southern blot of dl520 replication after Trichostatin A; assay type: cell-based; conditions: U373, 0.25, 0.5 and 0.75 μM Trichostatin A, 10 pfu/cell dl520
Description: In order to test the effect of Trichostatin A on adenoviral replication, 10^6 U373 tumour cells were plated in 10 cm^2 Petri dishes. After 24 hours 0.25, 0.5 and 0.75 μM Trichostatin A was added. After another 24 hours the cells were infected with 10 pfu/cell dl520.
After 3 days of incubation in medium without Trichostatin DNA was isolated. Subsequently 2 μg DNA were digested with restriction enzyme Kpn I and a Southern Blot analysis performed. A part of the adenoviral genome (position: 22734-24235) generated by means of PCR was used as a probe.

[3] = test system: Coxsackievirus-adenovirus-receptor (CAR) on U373 cells; experiment: FACS analysis of CAR expression; assay type: cell-based; conditions: U373, 1 μM Trichostatin, 24 hours
Description: 200,000 U373 cells were plated in 6 well plates. After 24 hours the cells were cultivated with 1 μM Trichostatin for 24 hours. After another 24 hours the cells were isolated. Subsequently, analysis of CAR expression was performed according to a standard protocol using Facs-analysis and the primary antibody anti-CAR clone RmcB from the company Upstate, and a rabbit-anti-mouse FITC as secondary antibody (company DAKO).

U2OS cells = experiment: Oncolytic assay with daunorubicine and dl520, crystal violet; assay type: cell-based, human; conditions: 40 ng/ml
Description: (§1) In the practising of the oncolytic assays the following procedure was followed: 200,000 cells (HeLa and U2OS, respectively) were plated into each well of a 6 well plate. On the next day 40 ng/ml (final concentration) of daunorubicine were added. After 3 hours of incubation the cells were infected with 10 and 30 pfu dl520/cell, respectively. Subsequently, the cells were incubated in cytostatic free medium. After 3-5 days the cells were stained using crystal violet.

HeLa cells = experiment: as above; assay type: cell-based; conditions: 40 ng/ml
Description: as §1

CCc1c2c(nc3ccc(OC(=O)N4CCC(N5CCCCC5)CC4)cc13)-c1cc3c(c(=O)n1C2)COC(=O)[C@]3(O)CC [Irinotecan]
dl520 titer at which the cells were lysed (U373 cells): 30 pfu/cell
adenoviral (dl520) replication compared to untreated control (U373 tumour cells [1]): significantly increased

CC(/C=C/C(=O)NO)=C\[C@@H](C)C(=O)c1ccc(N(C)C)cc1 [Trichostatin A]
viral (dl520) replication compared to untreated controls (U373 tumour cells [2]): significantly increased
CAR-positive cells [3]: 56.2%

COc1cccc2c1C(=O)c1c(O)c3c(c(O)c1C2=O)C[C@@](O)(C(C)=O)C[C@@H]3O[C@H]1C[C@H](N)[C@H](O)[C@H](C)O1 [daunorubicine]
effect of daunorubicine on replication of dl520 (U2OS cells): induces the replication of dl520
effect of daunorubicine on replication of dl520 (HeLa cells): induces the replication of dl520
